Laboratory results reported in patent US20220304957A1, “ANTI-CANCER COMPOSITIONS AND METHODS OF USE” (Board of Supervisors of Louisiana State University and …, priority 2019, published 2022).
Where two headings read alike, the source gives them in different places.

Columns and labels:
[1] = Stability in human blood (HPLC); type: in vitro ADME; conditions: 50 μM added, 37 °C, 48-hour time point
Protocol: Aliquots of 50 μM PP1 and FF in DMSO were added to 500 μl to heparinized human blood to a final concentration of 50 μM. Following incubation at 37° C. for the indicated time points, the samples were frozen at −80° C., and later prepared for HPLC-based detection of the compounds. Please note that FF is converted to FA in the presence of human blood. […] Data represent average values with standard deviation (n=3). panel B: Water solubility. FF and PP1, were added to water to a final concentration of 50 mM and sonicated in an ultrasonic bath (Branson 1510 Digital Heated Ultrasonic bath) for one hour at room temperature. The samples were then centrifuged for 10 minutes at 16000×g, and the supernatant filtered through 0.45 μm syringe filter. […] The PPAR transcriptional activity was determined in HepG2 cells by the JsTkpGL3 reporter plasmid, which contains a firefly luciferase gene driven by the PPRE, which consists of three copies of the J site from the apo-AII gene promoter. […] The luciferase activity was detected with Dual-Luciferase reporter assay system (Promega, Madison, Wis.), and the resulting luminescence measured with Synergy 2 microplate reader (BioTek, Winooski, Vt.). […]
In this experiment, 50 μM of PP1 and 50 μM of FF were incubated with human blood at […], at indicated time points. […] In contrast, nearly 25 μM of PP1 was still detected at the 48-hour time point (FIG. 4A; left panel).

[2] = test system: LN-229 human glioblastoma cells; conditions: in vitro; cited from earlier work
[3] = test system: GL-261-luc mouse glioblastoma cell line; experiment: Cell death, trypan blue, GL-261; conditions: 5-50 μM, 96 h
Protocol: The percentage of cell death was calculated at 96-hour time point for all experimental conditions.

[4] = test system: LN-229 human glioblastoma cells; conditions: for % cell death: 72-/96-hour time points
[5] = test system: PPAR responsive elements (PPRE); experiment: PPAR luciferase assay (PPRE reporter) in HepG2 cells; type: cell-based; conditions: 25 μM, 24 hrs
Protocol: Aliquots of 50 μM PP1 and FF in DMSO were added to 500 μl to heparinized human blood to a final concentration of 50 μM. Following incubation at 37° C. for the indicated time points, the samples were frozen at −80° C., and later prepared for HPLC-based detection of the compounds. Please note that FF is converted to FA in the presence of human blood. […] Data represent average values with standard deviation (n=3). panel B: Water solubility. FF and PP1, were added to water to a final concentration of 50 mM and sonicated in an ultrasonic bath (Branson 1510 Digital Heated Ultrasonic bath) for one hour at room temperature. The samples were then centrifuged for 10 minutes at 16000×g, and the supernatant filtered through 0.45 μm syringe filter. Water solubilized PP1 and FF were subsequently processed for HPLC analysis (see Methods). Data represent average values with standard deviation (n=3). panel C: Effects of PP compounds on PPAR responsive elements (PPRE). The PPAR transcriptional activity was determined in HepG2 cells by the JsTkpGL3 reporter plasmid, which contains a firefly luciferase gene driven by the PPRE, which consists of three copies of the J site from the apo-AII gene promoter. To normalize for efficiency of transfection the cells were additionally transfected with the pSV40-GLuc (New England Biolabs, Ipswich, Mass.) control plasmid. […] The luciferase activity was detected with Dual-Luciferase reporter assay system (Promega, Madison, Wis.), and the resulting luminescence measured with Synergy 2 microplate reader (BioTek, Winooski, Vt.). Data represent average values with standard deviation (n=6).
PPAR Luciferase Assay—The PPAR transcriptional activity was determined by utilizing the JsTkpGL3 reporter plasmid, which contains a firefly luciferase gene driven by the PPAR responsive element (PPRE), which consists of three copies of the J site from the apo-AII gene promoter. Together with JsTkpGL3 plasmid HepG2 cells were transfected with pSV40-GLuc (New England Biolabs, Ipswich, Mass.) control plasmid expressing Gaussia luciferase under the control of the constitutive SV40 early promoter to normalize for efficiency of transfection. […] The luciferase activity was detected with Dual-Luciferase reporter assay system (Promega, Madison, Wis.), and the resulting luminescence measured with Synergy 2 microplate reader (BioTek, Winooski, Vt.).

CN(CCO)C(=O)C(C)(C)Oc1ccc(C(=O)c2ccc(Cl)cc2)cc1 [PP1, 2-[4-(4-chlorobenzoyl)phenoxy]-N-(2-hydroxyethyl)-N,2-dimethylpropanamide]
compound still detected in human blood [1]: ~25 µM
concentration at which highly effective tumor cell death occurs [2]: 10 µM
in vitro cytotoxicity [3]: high in vitro cytotoxicity
% cell death ([4]; 5 μM): 74+/−3%
% cell death ([4]; 10 μM): 92+/−2%
cell death ([4]; 25 and 50 μM, 72- and 96-hour time points): extensive cell death
concentration triggering extensive glioblastoma cell death, fold lower than FF ([4]; in vitro): ~5 fold
effect on PPAR responsive elements (PPRE) [5]: attenuate
